Square brackets hold non-standard residues; d marks the D form. Peptide text beside a SMILES is read from it. * marks the point of attachment. ξ: configuration not given here. Cbz = O=C(OCc1ccccc1)*; ξDap = NCC(N)C(=O)O
Columns and labels:
rhinovirus B14 = experiment: Antiviral activity against Human rhinovirus serotype 14 infected in human HeLa cells assessed as reduction in virus-induced cytopathic effect by measuring reduction in host cell viability preincubated with cells for 6 hrs followed by viral infection measured up to 72 hrs by CellTiter-Glo luminescence assay; assay type: functional, organism-based; details: Rhinovirus B
Genome polyprotein = Genome polyprotein (rhinovirus B14, UniProt P03303); experiment: Inhibition of Human rhinovirus serotype 14 3C protease preincubated for 1 hr followed by Cys(PT14M)-Ala-Ile-Phe-Gln'Gly-Pro-Asp-Phe(4-NH2)-OH substrate addition measured after 1 hr by fluorescence lifetime readout assay
Genome polyprotein, sequence (P03303 1538-1719 limits assumed): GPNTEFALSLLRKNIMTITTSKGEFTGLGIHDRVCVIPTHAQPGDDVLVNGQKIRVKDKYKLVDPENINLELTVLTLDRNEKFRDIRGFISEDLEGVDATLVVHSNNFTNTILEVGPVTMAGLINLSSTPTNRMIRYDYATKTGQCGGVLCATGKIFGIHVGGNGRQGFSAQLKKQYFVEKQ

Row | Structure (SMILES) | IC50 (Genome polyprotein) [nM] | EC50 (rhinovirus B14) [nM]
1 | Cc1cc(C(=O)N[C@H]2C/C=C/CO[C@H]3CCN(C3)C(=O)CC[C@@H](C=O)NC(=O)[C@H](Cc3ccc(F)cc3)NC2=O)no1 | 3 | 5740
2 | CC(=O)NCC(C=O)NC(=O)[C@H](Cc1ccccc1)NC(=O)[C@H](CC(C)C)NC(=O)OCc1ccccc1 (stereo partly drawn) (Cbz-Leu-Phe-[ξDap](Ac)-aldehyde) | 7 | 1760
3 | Cc1cc(C(=O)N[C@H]2CCCCN(C)C(=O)CC[C@@H](C(=O)C(=O)N3CCC3)NC(=O)[C@H](Cc3ccc(F)cc3)NC2=O)no1 | 35 | 6100
4 | Cc1cc(C(=O)N[C@H]2CNC(=O)C[C@H]3CCCN3C(=O)CC[C@@H](C=O)NC(=O)[C@H](Cc3ccc(F)cc3)NC2=O)no1 | 2 | 29100
5 | Cc1cc(C(=O)N[C@H]2CCCCNC(=O)CC[C@@H](C=O)NC(=O)[C@H](Cc3ccc(F)cc3)NC2=O)no1 | 3200 | > 50000
6 | Cc1cc(C(=O)N[C@@H]2C(=O)N[C@@H](Cc3ccc(F)cc3)C(=O)N[C@H](C=O)CCC(=O)N(C)Cc3cccc2c3)no1 | 8 | 568
7 | CCOC(=O)/C=C/[C@@H]1CCC(=O)N(C)CCCC[C@H](NC(=O)c2cc(C)on2)C(=O)N[C@@H](Cc2ccc(F)cc2)C(=O)N1 | 3840 | > 50000
8 | Cc1cc(C(=O)N[C@@H]2C(=O)N[C@@H](Cc3ccc(F)cc3)C(=O)N[C@H](C=O)CCC(=O)NCc3cccc2c3)no1 | 753 | 21900
9 | Cc1cc(C(=O)N[C@H]2CCCCN(C)C(=O)CC[C@@H](C=O)NC(=O)[C@@H]3C[C@@H](c4ccccc4)CN3C2=O)no1 | 7370 | 28600

More lines, main results first:

Row | IC50 (Genome polyprotein) [nM] | Structure (SMILES) | EC50 (rhinovirus B14) [nM]
10 | 2 | Cc1cc(C(=O)N[C@H]2CCCNC(=O)[C@H]3CCN(C3)C(=O)CC[C@@H](C=O)NC(=O)[C@H](Cc3ccc(F)cc3)NC2=O)no1 | > 50000
11 | 2 | Cc1cc(C(=O)N[C@H]2C/C=C/CCCO[C@H]3CCN(C3)C(=O)CC[C@@H](C=O)NC(=O)[C@H](Cc3ccc(F)cc3)NC2=O)no1 | 2050
12 | 18 | Cc1cc(C(=O)N[C@H]2CNC(=O)CN(C)C(=O)CC[C@@H](C=O)NC(=O)[C@H](Cc3ccc(F)cc3)NC2=O)no1 | > 50000
13 | 63 | Cc1cc(C(=O)N[C@H]2CCCCN(C)C(=O)CC[C@@H](C=O)NC(=O)[C@H](Cc3ccc(F)cc3)NC2=O)no1 | 3400
14 | 6 | Cc1cc(C(=O)N[C@H]2CNC(=O)[C@H]3CCCN3C(=O)CC[C@@H](C=O)NC(=O)[C@H](Cc3ccc(F)cc3)NC2=O)no1 | 33500

Reference: ChEMBL document CHEMBL4184282, “Structure-based design and synthesis of macrocyclic human rhinovirus 3C protease inhibitors” (Bioorg Med Chem Lett, 2018)
